In US8546611B2 (priority 2008, dated 2013):
Like-named read-outs stand apart in the source and are kept apart here.

Columns and labels:
[1] = tested on: erythroid cells isolated from the bone marrow of laboratory mice males; settings: feed with succinic acid 20 mg/kg body wt., not irradiated
Protocol: The test for genotoxicity was performed on young laboratory mice males (18-20 g; 6 animals in each group). […] The control animals were given water.

Wistar rat males = settings: for adaptogenic properties, conclusion in words: 6-hour immobilization stress, Wistar rats; for Eosinophils, 6 h after / Lymphocytes, 6 h after / Number of leukocytes in 1 μl of blood, 6 h after / Segmentated cells, 6 h after: 6 h after immobilization; for Eosinophils, 6 h after / Lymphocytes, 6 h after / Number of leukocytes in 1 μl of blood, 6 h after / Segmentated cells, 6 h after / Eosinophils, before / Lymphocytes, before / Number of leukocytes in 1 μl of blood, before / Segmentated cells, before: 1.5 ml of 1% succinic acid perorally 10 min prior; for Eosinophils, before / Lymphocytes, before / Number of leukocytes in 1 μl of blood, before / Segmentated cells, before: at the moment of immobilization
Protocol: Examples, illustrating the method invented, are presented below. […] SA is tested on rats endured an immobilization stress; the parameter tested is lymphocytic composition of blood, which is determined before and after stress in a blood smear taken from the caudal vein. […] A detailed description of the testing technique is given in Example 13.
The animals were fixed while lying flat on their back, with their legs secured. […] Blood was taken from the caudal vein: 10 μl for counting blood corpuscles and 20 μl for preparing a smear with its subsequent staining by Romanovsky-Giemsa).
First group: 10 min prior immobilization, the animals were injected (perorally, with the help of a stomach pump) with 1.5 ml of 1% starch solution. […] Blood was taken from the caudal vein at the moment of immobilization and 6 hours later, and stained blood smears were prepared to calculate the leukogram.

[2] = tested on: patients with cardiac insufficiency; settings: for patients of functional class I, day 30 / patients of functional class II, day 30 / patients of functional class III, day 30 / patients of functional class IV, day 30 / patients of functional class I, day 60 / patients of functional class II, day 60 / patients of functional class III, day 60 / patients of functional class IV, day 60 / patients of functional class I, day 90 / patients of functional class II, day 90 / patients of functional class III, day 90 / patients of functional class IV, day 90: 100 mg twice per day with standard therapy; for patients of functional class I, day 30 / patients of functional class II, day 30 / patients of functional class III, day 30 / patients of functional class IV, day 30: after 30 days; for patients of functional class I, day 60 / patients of functional class II, day 60 / patients of functional class III, day 60 / patients of functional class IV, day 60: after 60 days; for patients of functional class I, day 90 / patients of functional class II, day 90 / patients of functional class III, day 90 / patients of functional class IV, day 90: after 90 days; for cardiotonic properties / dynamics of functional class, conclusion in words / patients of functional class I, day 0 / patients of functional class II, day 0 / patients of functional class III, day 0 / patients of functional class IV, day 0: 100 mg twice per day, 3 months; for patients of functional class I, day 0 / patients of functional class II, day 0 / patients of functional class III, day 0 / patients of functional class IV, day 0: with standard therapy, before treatment
Protocol: The test for cardiotonic activity of product samples was performed by measuring the dynamics of alteration of the functional class of cardiac failure. The functional class can be determined quite accurately by analyzing the everyday life activities according to a specific activity scale. The authors of this technique suppose that the criteria developed by NYHA (New York Heart Association) cannot provide accurate determination of functional class, since widely used terms, such as “everyday physical activity”, “sub-everyday activity” are not specific. On the basis of multiple tests, in which patients exercised on a treadmill, the authors calculated a scale of metabolic expenses for each kind of life activity (see Goldman L., Hashimoto B., Cook F. et al., Comparative reproducibility and validity of systems for assessing cardiovascular functional class: advantages of a new specific activity scale (1981) Circulation 64 (6):1227-34). This inquiry is designed to be used by medical personnel, interviewing a patient. After calculating the sum of possible energy expenses, the functional class of the patient is determined according to the summary criteria of the specific activity scale (Table 6).
In the tests, the patient groups were formed so that the people of the same functional class were equally distributed among different groups. Severe patients (of IV functional class; those having oncological diseases or suffered myocardial infarction/stroke to the brain 60 days or less before) were not admitted to the tests. The distribution of patients among groups was governed by a random number generator. The tests were carried out by the following protocol. Each patient took 100 mg of the preparation twice per day (in the morning and after lunch) during 3 months—against the background of a standard therapy administered by a physician. […] All the samples and placebo were encoded before sending into the clinic, so none of those involved into the tests (patients, physicians, medical personnel and the manager of tests) was aware of the nature of samples.
The functional class of patients was determined several times: at the beginning of tests (before the formation of test groups) and after 30, 60 and 90 days of treatment with the test samples. The estimation was performed on the basis of the activity scale (Table 7).

white rat females = settings: female, in vivo, 5000 mg/kg; for Total died: 14 days
[3] = compared with “natural” SA
[4] = tested on: erythroid cells isolated from the bone marrow of gamma-irradiated laboratory mice males; experiment: Radioprotective properties (micronucleus test after gamma irradiation); settings: for radioprotective effect, conclusion in words: gamma rays 1.3 Gy, 20 mg/kg body wt., 48 h, 20 mg/kg; for Number of micronuclei per 2000 cells (radioprotective properties): mice irradiated with gamma rays 1.3 Gy, then fed 48 h succinic acid 20 mg/kg body wt., critical value 16±2

Compound	Number of micronuclei per 2000 cells (genotoxicity) ([1]; norm 5.0±1.0)	patients of functional class I, day 30 [2]	patients of functional class II, day 30 [2]	patients of functional class III, day 30 [2]	patients of functional class IV, day 30 [2]	patients of functional class I, day 60 [2]	patients of functional class II, day 60 [2]	patients of functional class III, day 60 [2]	patients of functional class IV, day 60 [2]	patients of functional class I, day 90 [2]	patients of functional class II, day 90 [2]	patients of functional class III, day 90 [2]	patients of functional class IV, day 90 [2]	patients of functional class I, day 0 [2]	patients of functional class II, day 0 [2]	patients of functional class III, day 0 [2]	patients of functional class IV, day 0 [2]	died, 14 day (white rat females)	Total died (white rat females)	Number of micronuclei per 2000 cells (radioprotective properties) [4]	also measured
O=C(O)CCC(=O)O [Example 3, succinic acid, reference compound]	5.0 ± 0.6	9	7	4	0	9	7	4	0	10	7	3	0	8	7	5	0	2	2	16.0 ± 1.6	adaptogenic properties, conclusion in words (Wistar rat males): at the “borderline”; Eosinophils, 6 h after (Wistar rat males; listed as Ex. 3): 0.5 ± 4%; Lymphocytes, 6 h after (Wistar rat males; listed as Ex. 3): 73 ± 5%; Number of leukocytes in 1 μl of blood, 6 h after (Wistar rat males; listed as Ex. 3): 7100; Segmentated cells, 6 h after (Wistar rat males; listed as Ex. 3): 26 ± 3%; Eosinophils, before (Wistar rat males; listed as Ex. 3): 2 ± 6%; Lymphocytes, before (Wistar rat males; listed as Ex. 3): 76 ± 6%; Number of leukocytes in 1 μl of blood, before (Wistar rat males; listed as Ex. 3): 5700; Segmentated cells, before (Wistar rat males; listed as Ex. 3): 22 ± 3%; cardiotonic properties / dynamics of functional class, conclusion in words [2]: more expressed; biological activity, overall conclusion in words [3]: higher activity but it is far from that of “natural” SA; radioprotective effect, conclusion in words [4]: close to the dividing line
O=C(O)CCC(=O)O [“Natural” SA, succinic acid, reference compound]	–	10	6	4	0	9	8	3	0	14	5	1	0	8	7	4	0	2	3	–	Number of micronuclei per 2000 cells (genotoxicity) ([1]; norm 5.0±1.0, listed as “Natural acid”): 5.0 ± 1.0; adaptogenic properties, conclusion in words (Wistar rat males; listed as “natural” acid): evident adaptogens; Eosinophils, 6 h after (Wistar rat males): 1.5 ± 3%; Lymphocytes, 6 h after (Wistar rat males): 74 ± 4%; Number of leukocytes in 1 μl of blood, 6 h after (Wistar rat males): 7100; Segmentated cells, 6 h after (Wistar rat males): 25 ± 3%; Eosinophils, before (Wistar rat males): 2 ± 4%; Lymphocytes, before (Wistar rat males): 75 ± 4%; Number of leukocytes in 1 μl of blood, before (Wistar rat males): 5900; Segmentated cells, before (Wistar rat males): 23 ± 2%; cardiotonic properties / dynamics of functional class, conclusion in words ([2]; listed as “natural” acid): high cardiotonic properties; died, 13 day (white rat females): 1; radioprotective effect, conclusion in words [4]: evident radioprotectors; Number of micronuclei per 2000 cells (radioprotective properties) ([4]; listed as “Natural acid”): 12.0 ± 1.6
O=C(O)CCC(=O)O [Example 7, succinic acid]	5.0 ± 1.0	9	6	5	0	13	5	2	0	15	4	1	0	8	7	5	0	2	4	11.5 ± 1.8	Eosinophils, 6 h after (Wistar rat males; listed as Ex. 7): 1.5 ± 4%; Lymphocytes, 6 h after (Wistar rat males; listed as Ex. 7): 73 ± 6%; Number of leukocytes in 1 μl of blood, 6 h after (Wistar rat males; listed as Ex. 7): 7200; Segmentated cells, 6 h after (Wistar rat males; listed as Ex. 7): 26 ± 3%; Eosinophils, before (Wistar rat males; listed as Ex. 7): 2 ± 1%; Lymphocytes, before (Wistar rat males; listed as Ex. 7): 75 ± 7%; Number of leukocytes in 1 μl of blood, before (Wistar rat males; listed as Ex. 7): 6000; Segmentated cells, before (Wistar rat males; listed as Ex. 7): 23 ± 3%; died, 13 day (white rat females): 2
O=C(O)CCC(=O)O [Example 4, succinic acid]	5.5 ± 1.0	8	7	5	0	9	9	3	0	13	6	1	0	8	7	5	0	1	3	12.5 ± 2.0	Eosinophils, 6 h after (Wistar rat males; listed as Ex. 4): 1.5 ± 6%; Lymphocytes, 6 h after (Wistar rat males; listed as Ex. 4): 74 ± 8%; Number of leukocytes in 1 μl of blood, 6 h after (Wistar rat males; listed as Ex. 4): 7100; Segmentated cells, 6 h after (Wistar rat males; listed as Ex. 4): 24 ± 3%; Eosinophils, before (Wistar rat males; listed as Ex. 4): 2 ± 4%; Lymphocytes, before (Wistar rat males; listed as Ex. 4): 77 ± 4%; Number of leukocytes in 1 μl of blood, before (Wistar rat males; listed as Ex. 4): 5900; Segmentated cells, before (Wistar rat males; listed as Ex. 4): 21 ± 2%; died, 12 day (white rat females; 12 day): 1; died, 13 day (white rat females): 1
O=C(O)CCC(=O)O [Example 10, succinic acid]	5.0 ± 1.0	10	5	4	0	10	7	3	0	14	5	1	0	8	7	5	0	2	3	12.5 ± 1.0	Eosinophils, 6 h after (Wistar rat males; listed as Ex. 10): 1.5 ± 2%; Lymphocytes, 6 h after (Wistar rat males; listed as Ex. 10): 74 ± 4%; Number of leukocytes in 1 μl of blood, 6 h after (Wistar rat males; listed as Ex. 10): 7000; Segmentated cells, 6 h after (Wistar rat males; listed as Ex. 10): 24 ± 4%; Eosinophils, before (Wistar rat males; listed as Ex. 10): 2 ± 2%; Lymphocytes, before (Wistar rat males; listed as Ex. 10): 76 ± 5%; Number of leukocytes in 1 μl of blood, before (Wistar rat males; listed as Ex. 10): 5800; Segmentated cells, before (Wistar rat males; listed as Ex. 10): 22 ± 3%; died, 13 day (white rat females): 1
